According to PMC3618669 (Journal of molecular recognition : JMR, 2013):
One block for each molecule: values may come before it.

Legend:
[1] = target: bovine serum albumin (BSA) (Bos taurus, UniProt P02769); experiment: spectrophotometric metachromatic shift titration; type: binding
[2] = target: T1, CD40L (CD154) (Homo sapiens, UniProt P29965); experiment: spectrophotometric metachromatic shift titration; type: binding
T1 sequence (P29965 108-261): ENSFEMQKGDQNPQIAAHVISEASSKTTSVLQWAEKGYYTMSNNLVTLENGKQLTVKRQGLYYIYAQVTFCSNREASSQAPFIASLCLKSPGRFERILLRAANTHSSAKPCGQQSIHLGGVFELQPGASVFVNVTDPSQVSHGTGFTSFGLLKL

[3] = target: the molecule itself; experiment: SEC

bovine serum albumin (BSA), sequence (P02769 25-607): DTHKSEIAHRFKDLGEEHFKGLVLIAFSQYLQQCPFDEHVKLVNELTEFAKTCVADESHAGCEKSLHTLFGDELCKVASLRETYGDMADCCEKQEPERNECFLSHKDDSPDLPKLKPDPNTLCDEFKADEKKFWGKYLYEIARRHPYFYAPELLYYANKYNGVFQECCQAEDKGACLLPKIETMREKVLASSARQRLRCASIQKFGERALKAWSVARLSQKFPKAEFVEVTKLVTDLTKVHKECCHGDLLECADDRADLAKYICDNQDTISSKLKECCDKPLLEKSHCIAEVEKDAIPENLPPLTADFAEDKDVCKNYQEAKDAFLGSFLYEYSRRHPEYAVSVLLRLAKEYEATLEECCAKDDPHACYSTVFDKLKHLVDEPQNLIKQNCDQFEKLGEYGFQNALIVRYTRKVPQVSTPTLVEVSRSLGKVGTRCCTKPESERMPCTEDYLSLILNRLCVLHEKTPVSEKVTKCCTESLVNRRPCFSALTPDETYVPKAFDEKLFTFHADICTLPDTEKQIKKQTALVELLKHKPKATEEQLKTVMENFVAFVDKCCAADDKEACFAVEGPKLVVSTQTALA

Kd [1]: 14 µM
Kd [2]: 20 µM
Molecule: O=C1OC2(c3ccccc31)c1cc(I)c(O)c(I)c1Oc1c2cc(I)c(O)c1I [ErB, erythrosine B]

B1: recombinant human histidine-tagged extracellular CD40L (ligand, UniProt P29965 108-261, looked up)
chain: T1 sequence (P29965 108-261)
stoichiometry N [3]: 3
